Legend:
Format in all cases: cell-based
[1] = test system: E. coli 7MP producing Class A and Class C beta-lactamase enzymes; test: Time kill study against E. coli 7MP; details: for Effect on bacterial count (in words): alone or in combination
Procedure: (§1) In general, the antibacterial activity of compositions according to invention was studied by performing time kill studies. In a typical time kill study, the freshly grown cultures were diluted to the required cell density (initial starting inoculum) in cation adjusted Muller Hinton broth medium (BD, USA). The antibacterial agents (either alone or in combination) at the required concentrations were added into the culture-containing medium. The samples were incubated under shaking condition (120 rpm) at 37° C. Enumeration of viable bacterial count was done every 2 hour by diluting in normal saline and plating on to the Tryptic Soya Agar plates (BD, USA). The plates were incubated for 24 hours to arrive at a viable bacterial count. The results are expressed in terms of log10 CFU/ml. In general, the decrease of 1 log10 CFU/ml corresponds to 90% killing of bacteria. Similarly, 2 log10 CFU/ml reductions indicates to 99% killing of bacteria and 3 log10 CFU/ml reductions is equal to 99.9% killing of bacteria.

[2] = test system: K. pneumoniae B-88 producing metallo beta-lactamase enzymes; test: Time kill study against K. pneumoniae B-88
Procedure: as §1

[3] = test system: A. baumanni 13301 producing Carbapenem hydrolysing beta-lactamase enzymes; test: Time kill study against A. baumanni 13301
Procedure: as §1

[4] = summary of Table 5, throughout the duration of the study

NC(=O)[C@@H]1CC[C@@H]2CN1C(=O)N2OS(=O)(=O)O [Avibactam, reference compound]
Change in Log10 CFU/ml over 0 hour count after 8 hours ([1]; Table 5, 4 mcg/ml alone): 2.28 Log10 CFU/ml | Bacterial count (Log10 CFU/ml) 2 hours ([1]; Table 5, 4 mcg/ml alone): 7.90 Log10 CFU/ml | Bacterial count (Log10 CFU/ml) 4 hours ([1]; Table 5, 4 mcg/ml alone): 9.23 Log10 CFU/ml | Bacterial count (Log10 CFU/ml) 6 hours ([1]; Table 5, 4 mcg/ml alone): 9.30 Log10 CFU/ml | Bacterial count (Log10 CFU/ml) 8 hours ([1]; Table 5, 4 mcg/ml alone): 9.36 Log10 CFU/ml | Effect on bacterial count (in words) [1, 4]: did not reduce the bacterial count

O=C(O)[C@H]1/C(=C/CO)O[C@@H]2CC(=O)N21 [Clavulanic acid, reference compound]
Change in Log10 CFU/ml over 0 hour count after 8 hours ([1]; Table 5, 4 mcg/ml alone): 2.28 Log10 CFU/ml | Bacterial count (Log10 CFU/ml) 2 hours ([1]; Table 5, 4 mcg/ml alone): 7.90 Log10 CFU/ml | Bacterial count (Log10 CFU/ml) 4 hours ([1]; Table 5, 4 mcg/ml alone): 9.23 Log10 CFU/ml | Bacterial count (Log10 CFU/ml) 6 hours ([1]; Table 5, 4 mcg/ml alone): 9.30 Log10 CFU/ml | Bacterial count (Log10 CFU/ml) 8 hours ([1]; Table 5, 4 mcg/ml alone): 9.36 Log10 CFU/ml | Effect on bacterial count (in words) [1, 4]: did not reduce the bacterial count

N#C[C@@H]1CC[C@@H]2CN1C(=O)N2OS(=O)(=O)O [Compound (B)]
Bacterial count (Log10 CFU/ml) 0 hours ([2]; 2 mcg/ml alone): 7.28 Log10 CFU/ml | Change in Log10 CFU/ml over 0 hour count after 24 hours ([2]; 2 mcg/ml alone): 2.12 Log10 CFU/ml | Bacterial count (Log10 CFU/ml) 2 hours ([2]; 2 mcg/ml alone): 8.27 Log10 CFU/ml | Bacterial count (Log10 CFU/ml) 4 hours ([2]; 2 mcg/ml alone): 9.04 Log10 CFU/ml | Bacterial count (Log10 CFU/ml) 6 hours ([2]; 2 mcg/ml alone): 9.18 Log10 CFU/ml | Bacterial count (Log10 CFU/ml) 24 hours ([2]; 2 mcg/ml alone): 9.40 Log10 CFU/ml | Effect on bacterial count (in words) ([2]; summary of Table 1, alone or in combination): could not reduce the bacterial count | Change in Log10 CFU/ml over 0 hour count after 24 hours ([1]; Table 2, 4 mcg/ml alone): 2.28 Log10 CFU/ml | Bacterial count (Log10 CFU/ml) 2 hours ([1]; Table 2, 4 mcg/ml alone): 7.90 Log10 CFU/ml | Bacterial count (Log10 CFU/ml) 4 hours ([1]; Table 2, 4 mcg/ml alone): 9.23 Log10 CFU/ml | Bacterial count (Log10 CFU/ml) 6 hours ([1]; Table 2, 4 mcg/ml alone): 9.30 Log10 CFU/ml | Bacterial count (Log10 CFU/ml) 24 hours ([1]; Table 2, 24 hours, 4 mcg/ml alone): 9.36 Log10 CFU/ml | Effect on bacterial count (in words) ([1]; summary of Table 2): could not reduce the bacterial count | Bacterial count (Log10 CFU/ml) 0 hours ([3]; 0 hours, 4 mcg/ml alone): 6.88 Log10 CFU/ml | Change in Log10 CFU/ml over 0 hour count after 24 hours ([3]; 4 mcg/ml alone): 2.16 Log10 CFU/ml | Bacterial count (Log10 CFU/ml) 2 hours ([3]; 2 hours, 4 mcg/ml alone): 8.04 Log10 CFU/ml | Bacterial count (Log10 CFU/ml) 4 hours ([3]; 4 hours, 4 mcg/ml alone): 8.74 Log10 CFU/ml | Bacterial count (Log10 CFU/ml) 6 hours ([3]; 6 hours, 4 mcg/ml alone): 8.90 Log10 CFU/ml | Bacterial count (Log10 CFU/ml) 8 hours ([3]; 8 hours, 4 mcg/ml alone): 9.20 Log10 CFU/ml | Bacterial count (Log10 CFU/ml) 24 hours ([3]; 24 hours, 4 mcg/ml alone): 9.04 Log10 CFU/ml | Effect on bacterial count (in words) ([3]; summary of Table 3, alone or in combination): could not reduce the bacterial count

C[C@@H](O)[C@H]1C(=O)N2C(C(=O)O)=C(SCCN=CN)C[C@H]12 [Imipenem, reference compound]
Bacterial count (Log10 CFU/ml) 0 hours ([2]; 8 mcg/ml alone): 7.28 Log10 CFU/ml | Change in Log10 CFU/ml over 0 hour count after 24 hours ([2]; 8 mcg/ml alone): 2.02 Log10 CFU/ml | Bacterial count (Log10 CFU/ml) 2 hours ([2]; 8 mcg/ml alone): 8.04 Log10 CFU/ml | Bacterial count (Log10 CFU/ml) 4 hours ([2]; 8 mcg/ml alone): 8.65 Log10 CFU/ml | Bacterial count (Log10 CFU/ml) 6 hours ([2]; 8 mcg/ml alone): 9.20 Log10 CFU/ml | Bacterial count (Log10 CFU/ml) 24 hours ([2]; 8 mcg/ml alone): 9.30 Log10 CFU/ml

C[C@]1(Cn2ccnn2)[C@H](C(=O)O)N2C(=O)C[C@H]2S1(=O)=O [Tazobactam, reference compound]
Change in Log10 CFU/ml over 0 hour count after 8 hours ([1]; Table 5, 4 mcg/ml alone): 2.28 Log10 CFU/ml | Bacterial count (Log10 CFU/ml) 2 hours ([1]; Table 5, 4 mcg/ml alone): 7.90 Log10 CFU/ml | Bacterial count (Log10 CFU/ml) 4 hours ([1]; Table 5, 4 mcg/ml alone): 9.23 Log10 CFU/ml | Bacterial count (Log10 CFU/ml) 6 hours ([1]; Table 5, 4 mcg/ml alone): 9.30 Log10 CFU/ml | Bacterial count (Log10 CFU/ml) 8 hours ([1]; Table 5, 4 mcg/ml alone): 9.36 Log10 CFU/ml | Effect on bacterial count (in words) [1, 4]: did not reduce the bacterial count
